According to US20260216348A1, “IRAK DEGRADATION AGENT AND USE THEREOF” (Increland, priority 2023, published 2026):
pIC50: −log10 of the molar value.

Legend:
[1] = target: T1, IRAK4 (Homo sapiens, UniProt Q9NWZ3); test: IRAK4 protein degradation in THP1 cells (Western blot); type: cell-based; conditions: THP-1 cells, 24 h
T1 construct: Effect of the Compounds on IRAK4 Protein Degradation in THP1 Cells; endogenous in cells; host or cells: THP-1 cells
T1 sequence (Q9NWZ3 1-460): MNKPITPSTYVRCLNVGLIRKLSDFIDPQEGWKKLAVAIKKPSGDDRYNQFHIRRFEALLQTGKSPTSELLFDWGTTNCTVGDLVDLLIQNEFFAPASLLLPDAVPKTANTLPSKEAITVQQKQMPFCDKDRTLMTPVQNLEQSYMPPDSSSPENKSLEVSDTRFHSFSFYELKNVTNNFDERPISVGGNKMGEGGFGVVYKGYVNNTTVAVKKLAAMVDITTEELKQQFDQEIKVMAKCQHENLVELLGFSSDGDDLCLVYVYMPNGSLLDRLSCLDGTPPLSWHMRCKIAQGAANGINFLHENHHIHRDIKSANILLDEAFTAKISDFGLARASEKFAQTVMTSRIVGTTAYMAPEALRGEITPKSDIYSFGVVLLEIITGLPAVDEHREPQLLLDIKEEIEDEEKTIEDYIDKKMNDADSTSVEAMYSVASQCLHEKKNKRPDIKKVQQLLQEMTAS
Method: THP-1 cells were seeded into a 96-well cell culture plate, with 2×10^5 cells and 90 μL of culture medium per well. The cell culture plate was cultured in an incubator with 5% CO2 at 37° C. overnight. The compound was dissolved in DMSO to prepare a stock solution, which was serially diluted into a series of working solutions with a 5-fold concentration gradient using the culture medium and then added to the aforementioned 96-well plate at 10 μL per well. The cell culture plate was further incubated for 24 h in a 5% CO2 incubator at 37° C. After incubation, the 96-well plate was centrifuged and the supernatant was discarded, followed by adding 40 μL of cell lysis buffer containing […]/phosphatase inhibitors to each well for sufficient lysis on an ice bath. Protein quantification was performed using the BCA protein quantification kit, followed by the preparation of Western blot samples. […] After electrophoresis, protein transfer was performed using a PVDF membrane under ice bath conditions for 1 h. After the transfer was completed, the PVDF membrane was blocked with gentle shaking in 5% skim milk at room temperature for 1 h. After blocking, the PVDF membrane was incubated with the primary antibody overnight with gentle shaking at 4° C. The PVDF membrane was washed 3 times with TBST, then the secondary antibody was added and incubated for 1 h with gentle shaking at room temperature, followed by washing of the PVDF membrane with TBST for 3 times. After the washes were completed, the chemiluminescent substrate was added; the PVDF membrane was scanned using a Clinx imager, semi-quantitative analysis was performed with ImageJ software, and the DC50 was calculated using GraphPad Prism 8.0.

[2] = tested on: LPS/IL-1β-induced IL-6 secretion in human peripheral blood mononuclear cells (PBMCs); test: Inhibition of LPS/IL-1β-induced IL-6 secretion in human PBMCs (IL-6 ELISA); type: cell-based; conditions: PBMC, LPS 10 ng/mL + IL-1β 20 ng/mL, 24 h pre-incubation, 20 h stimulation
Method: This experiment was carried out in RPMI 1640 medium containing 10% FBS and 1% penicillin/streptomycin, with each of the compounds at an initial test concentration of 1 μM.
The compound was dissolved in DMSO to prepare a stock solution, which was serially diluted into some working solutions with a 5-fold concentration gradient using the culture medium and then added to a 96-well plate at 10 μL per well. PBMCs (Batch No.: P122101102C; Milecell Biotechnology Inc.) were counted and diluted to a cell concentration of about 1.3×10^6 cells/mL, and then added to the aforementioned compound-containing 96-well plate at 150 μL per well. The system was mixed well and incubated in a 5% CO2 incubator at 37° C. for 24 h. Then 5 μL of LPS (final concentration: 10 ng/mL) and 5 μL of IL-1β (final concentration: 20 ng/mL) were added to each well, respectively, and the culture was continued for 20 h in a 5% CO2 incubator at 37° C. After incubation, the 96-well plate was centrifuged at 2000 rpm for 4 min. The supernatant was collected and diluted 200-fold, then detected using an IL-6 ELISA kit. The OD450 values were read, and converted to IL-6 concentrations based on a standard curve. The dose-response curves were fitted using GraphPad 8.0 to calculate the IC50 values.

CN(C)c1cc2nn([C@H]3CC[C@H](CN4CC[C@H](F)[C@@H](n5cc6cc(N7CCC(=O)NC7=O)ccc6n5)C4)CC3)cc2cc1NC(=O)c1cnn2cccnc12 [TM-214]
DC50 [1]: 1.21 nM

CN(C)c1cc2nn(C3CCC(CN4CCC[C@H](n5cc6cc(N7CCC(=O)NC7=O)ccc6n5)C4)CC3)cc2cc1NC(=O)c1cnn2cccnc12 (stereo partly shown) [TM-204]
DC50 [1]: 1.69 nM

CN(C)c1cc2nn([C@H]3CC[C@H](CN4CC[C@H](n5cc6cc(C7CCC(=O)NC7=O)ccc6n5)[C@H](F)C4)CC3)cc2cc1NC(=O)c1cnn2cccnc12 (stereo partly shown) [TM-155]
pIC50 [2]: 9.00
DC50 [1]: 0.31 nM

CN(C)c1cc2nn([C@H]3CC[C@H](CN4CC[C@@H](n5cc6ccc(N7CCC(=O)NC7=O)cc6n5)[C@@H](F)C4)CC3)cc2cc1NC(=O)c1cnn2cccnc12 [TM-29]
pIC50 [2]: 9.06
DC50 [1]: 1.13 nM

CN(C)c1cc2nn([C@H]3CC[C@H](CN4CC[C@H](n5cc6ccc(N7CCC(=O)NC7=O)cc6n5)[C@@H](F)C4)CC3)cc2cc1NC(=O)c1cnn2cccnc12 [TM-31]
pIC50 [2]: 8.48
DC50 [1]: 4.06 nM

CN(C)c1cc2nn([C@H]3CC[C@H](CN4CCC5(CC4)C[C@@H](n4cc6cc(F)c(C7CCC(=O)NC7=O)cc6n4)CO5)CC3)cc2cc1NC(=O)c1cnn2cccnc12 (stereo partly shown) [TM-140]
DC50 [1]: 13.9 nM

C[C@H]1CN(C[C@H]2CC[C@H](n3cc4cc(NC(=O)c5cnn6cccnc56)c(N(C)C)cc4n3)CC2)CC[C@@H]1n1cc2ccc(N3CCC(=O)NC3=O)cc2n1 [TM-27]
pIC50 [2]: 8.83
DC50 [1]: 4.27 nM

CN(C)c1cc2nn([C@H]3CC[C@H](CN4CC[C@H](n5cc6cc(N7CCC(=O)NC7=O)ccc6n5)[C@@H](F)C4)CC3)cc2cc1NC(=O)c1cnn2cccnc12 [TM-17]
pIC50 [2]: 8.47
DC50 [1]: 1.19 nM

CN(C)c1cc2nn([C@H]3CC[C@H](CN4CC[C@H](n5cc6ccc(C7CCC(=O)NC7=O)cc6n5)[C@@H](F)C4)CC3)cc2cc1NC(=O)c1cnn2cccnc12 (stereo partly shown) [TM-151]
pIC50 [2]: 8.15
DC50 [1]: 1.66 nM

CN(C)c1cc2nn([C@H]3CC[C@H](CN4CC[C@H](F)[C@@H](n5cc6ccc(N7CCC(=O)NC7=O)cc6n5)C4)CC3)cc2cc1NC(=O)c1cnn2cccnc12 [TM-213]
DC50 [1]: 1.74 nM

CN(C)c1cc2nn([C@H]3CC[C@H](CN4CCC5(CC4)C[C@@H](n4cc6cc(C7CCC(=O)NC7=O)c(F)cc6n4)CO5)CC3)cc2cc1NC(=O)c1cnn2cccnc12 (stereo partly shown) [TM-141]
pIC50 [2]: 8.35
DC50 [1]: 4.33 nM

CN(C)c1cc2nn([C@H]3CC[C@H](CN4C[C@@H](F)[C@H](n5cc6ccc(N7CCC(=O)NC7=O)cc6n5)C4)CC3)cc2cc1NC(=O)c1cnn2cccnc12 [TM-200]
DC50 [1]: 1.79 nM

CN(C)c1cc2nn([C@H]3CC[C@H](CN4CCC(n5cc6cc(F)c(N7CCC(=O)NC7=O)cc6n5)CC4)CC3)cc2cc1NC(=O)c1cnn2cccnc12 [TM-10]
pIC50 [2]: 8.87
DC50 [1]: 4 nM

CN(C)c1cc2nn(C3CCN(C[C@H]4CC[C@H](n5cc6cc(C7CCC(=O)NC7=O)ccc6n5)CC4)CC3)cc2cc1NC(=O)c1cnn2cccnc12 (stereo partly shown) [TM-7]
pIC50 [2]: 9.74
DC50 [1]: 3.73 nM

CN(C)c1cc2nn([C@H]3CC[C@H](CN4CC[C@@H](n5cc6cc(N7CCC(=O)NC7=O)ccc6n5)[C@H](F)C4)CC3)cc2cc1NC(=O)c1cnn2cccnc12 [TM-16]
pIC50 [2]: 8.34
DC50 [1]: 0.41 nM

CN(C)c1cc2nn(C3CCN(C[C@H]4CC[C@H](n5cc6ccc(C7CCC(=O)NC7=O)cc6n5)CC4)CC3)cc2cc1NC(=O)c1cnn2cccnc12 (stereo partly shown) [TM-5]
pIC50 [2]: 9.59
DC50 [1]: 4.62 nM

CN(C)c1cc2nn([C@H]3CC[C@H](CN4CC[C@H](n5cc6cc(F)c(C7CCC(=O)NC7=O)cc6n5)[C@@H](F)C4)CC3)cc2cc1C(=O)Nc1cnn2cccnc12 (stereo partly shown) [TM-158]
pIC50 [2]: 7.84
DC50 [1]: 1.41 nM

CN(C)c1cc2nn([C@H]3CC[C@H](CN4CC[C@H](n5cc6ccc(N7CCC(=O)NC7=O)cc6n5)[C@H](F)C4)CC3)cc2cc1NC(=O)c1cnn2cccnc12 [TM-32]
pIC50 [2]: 8.92
DC50 [1]: 1.4 nM

C[C@H]1CN(C[C@H]2CC[C@H](n3cc4cc(NC(=O)c5cnn6cccnc56)c(N(C)C)cc4n3)CC2)CC[C@@H]1n1cc2ccc(C3CCC(=O)NC3=O)cc2n1 (stereo partly shown) [TM-157]
pIC50 [2]: 8.84
DC50 [1]: 1.12 nM

CN(C)c1cc2nn([C@H]3CC[C@H](CN4CC[C@H](n5cc6cc(N7CCC(=O)NC7=O)ccc6n5)[C@H](F)C4)CC3)cc2cc1NC(=O)c1cnn2cccnc12 [TM-18]
pIC50 [2]: 8.43
DC50 [1]: 1.2 nM

CN(C)c1cc2nn([C@H]3CC[C@H](CN4CC[C@@H](n5cc6cc(C7CCC(=O)NC7=O)ccc6n5)[C@@H](F)C4)CC3)cc2cc1NC(=O)c1cnn2cccnc12 (stereo partly shown) [TM-156]
pIC50 [2]: 8.93
DC50 [1]: 0.32 nM

CN(C)c1cc2nn([C@H]3CC[C@H](CN4CC5(CC(n6cc7ccc(N8CCC(=O)NC8=O)cc7n6)C5)C4)CC3)cc2cc1NC(=O)c1cnn2cccnc12 [TM-215]
DC50 [1]: 0.95 nM

CO[C@H]1CN(C[C@H]2CC[C@H](n3cc4cc(NC(=O)c5cnn6cccnc56)c(N(C)C)cc4n3)CC2)CC[C@H]1n1cc2ccc(N3CCC(=O)NC3=O)cc2n1 [TM-33]
pIC50 [2]: 9.06
DC50 [1]: 2.86 nM

CN(C)c1cc2nn([C@H]3CC[C@H](CN4CCC(c5nc6ccc(N7CCC(=O)NC7=O)cc6o5)CC4)CC3)cc2cc1NC(=O)c1cnn2cccnc12 [TM-186]
DC50 [1]: 0.98 nM

CN(C)c1cc2nn([C@H]3CC[C@H](CN4CC[C@H](n5cc6cc(C7CCC(=O)NC7=O)ccc6n5)[C@@H](F)C4)CC3)cc2cc1NC(=O)c1cnn2cccnc12 (stereo partly shown) [TM-168]
DC50 [1]: 1.78 nM

CN(C)c1cc2nn([C@H]3CC[C@H](CN4CC[C@H](n5cc6ccc(C7CCC(=O)NC7=O)cc6n5)[C@H](F)C4)CC3)cc2cc1NC(=O)c1cnn2cccnc12 (stereo partly shown) [TM-153]
pIC50 [2]: 8.17
DC50 [1]: 0.79 nM

C[C@@H]1CN(C[C@H]2CC[C@H](n3cc4cc(NC(=O)c5cnn6cccnc56)c(N(C)C)cc4n3)CC2)CC[C@H]1n1cc2ccc(C3CCC(=O)NC3=O)cc2n1 (stereo partly shown) [TM-142]
pIC50 [2]: 9.06
DC50 [1]: 0.77 nM

CO[C@H]1CN(C[C@H]2CC[C@H](n3cc4cc(NC(=O)c5cnn6cccnc56)c(N(C)C)cc4n3)CC2)CC[C@@H]1n1cc2ccc(C3CCC(=O)NC3=O)cc2n1 (stereo partly shown) [TM-166]
pIC50 [2]: 9.05
DC50 [1]: 1.58 nM

CN(C)c1cc2nn([C@H]3CC[C@H](CN4C[C@@H]5[C@H](C4)[C@H]5n4cc5ccc(N6CCC(=O)NC6=O)cc5n4)CC3)cc2cc1NC(=O)c1cnn2cccnc12 [TM-182]
DC50 [1]: 3.82 nM

CN(C)c1cc2nn([C@H]3CC[C@H](CN4CC5(CCN(c6nc7ccc(N8CCC(=O)NC8=O)cc7s6)CC5)C4)CC3)cc2cc1NC(=O)c1cnn2cccnc12 [TM-67]
pIC50 [2]: 8.40
DC50 [1]: 19.9 nM

CN(C)c1cc2nn([C@H]3CC[C@H](CN4CCC(c5nc6cc(C7CCC(=O)NC7=O)c(F)cc6o5)CC4)CC3)cc2cc1NC(=O)c1cnn2cccnc12 (stereo partly shown) [TM-147]
DC50 [1]: 11 nM
